Results on eight compounds are retold here after PubChem BioAssay AID1259407 (Chemical Carcinogenesis Research Information System (CCRIS), 2018).

Activity calls are given as the source filed them. The rule behind the calls is not given here.

In the series the test system is CCRIS mutagenicity, Ames/micronucleus/aberration tests. In words: CCRIS mutagenicity studies.
Where [1] appears, read: Test System: AMES SALMONELLA TYPHIMURIUM, Strain/Indicator: TA98, Metabolic Activation: NONE, Method: PREINCUBATION
Setting [2] is: Test System: AMES SALMONELLA TYPHIMURIUM, Strain/Indicator: TA100, Metabolic Activation: NONE, Method: PREINCUBATION
Setting [3] is: Test System: AMES SALMONELLA TYPHIMURIUM, Strain/Indicator: TA98, Metabolic Activation: NONE, Method: STANDARD PLATE.
Setting [4] is: Test System: AMES SALMONELLA TYPHIMURIUM, Strain/Indicator: TA100, Metabolic Activation: NONE, Method: STANDARD PLATE.
Setting [5] is: Test System: AMES SALMONELLA TYPHIMURIUM, Strain/Indicator: TA100, Metabolic Activation: RAT, LIVER, S-9, AROCLOR 1254, Method: STANDARD PLATE.
Setting [6] is: Test System: AMES SALMONELLA TYPHIMURIUM, Strain/Indicator: TA1537, Metabolic Activation: NONE, Method: STANDARD PLATE.

Regarding `O=C1C=C(O)c2ccccc2C1=O`, the mutagenic call is “inactive; negative” (Test System: AMES SALMONELLA TYPHIMURIUM, Strain/Indicator: TA98, Metabolic Activation: HAMSTER, LIVER, S-9, AROCLOR 1254 (10%), Method: PREINCUBATION); “inactive; negative” under setting [1]; “inactive; negative” (Test System: AMES SALMONELLA TYPHIMURIUM, Strain/Indicator: TA98, Metabolic Activation: RAT, LIVER, S-9, AROCLOR 1254 (10%), Method: PREINCUBATION); “inactive; negative” (Test System: AMES SALMONELLA TYPHIMURIUM, Strain/Indicator: TA98, Metabolic Activation: RAT, LIVER, S-9, PHENOBARBITAL AND 5,6-BENZOFLAVONE, Method: PREINCUBATION); “inactive; negative” (Test System: AMES SALMONELLA TYPHIMURIUM, Strain/Indicator: TA100, Metabolic Activation: HAMSTER, LIVER, S-9, AROCLOR 1254 (10%), Method: PREINCUBATION); “inactive; negative” under setting [2]. In addition, the mutagenic call was “inactive; negative” (Test System: AMES SALMONELLA TYPHIMURIUM, Strain/Indicator: TA100, Metabolic Activation: RAT, LIVER, S-9, AROCLOR 1254 (10%), Method: PREINCUBATION); “inactive; negative” (Test System: AMES SALMONELLA TYPHIMURIUM, Strain/Indicator: TA100, Metabolic Activation: RAT, LIVER, S-9, PHENOBARBITAL AND 5,6-BENZOFLAVONE, Method: PREINCUBATION); “inactive; negative” (Test System: AMES SALMONELLA TYPHIMURIUM, Strain/Indicator: TA102, Metabolic Activation: NONE, Method: PREINCUBATION); “inactive; negative” (Test System: AMES SALMONELLA TYPHIMURIUM, Strain/Indicator: TA102, Metabolic Activation: RAT, LIVER, S-9, PHENOBARBITAL AND 5,6-BENZOFLAVONE, Method: PREINCUBATION); “inactive; negative” (Test System: AMES SALMONELLA TYPHIMURIUM, Strain/Indicator: TA104, Metabolic Activation: NONE, Method: PREINCUBATION); “inactive; negative” (Test System: AMES SALMONELLA TYPHIMURIUM, Strain/Indicator: TA104, Metabolic Activation: RAT, LIVER, S-9, PHENOBARBITAL AND 5,6-BENZOFLAVONE, Method: PREINCUBATION). The mutagenic call was “inactive; negative” (Test System: AMES SALMONELLA TYPHIMURIUM, Strain/Indicator: TA1535, Metabolic Activation: HAMSTER, LIVER, S-9, AROCLOR 1254 (10%), Method: PREINCUBATION); “inactive; negative” (Test System: AMES SALMONELLA TYPHIMURIUM, Strain/Indicator: TA1535, Metabolic Activation: NONE, Method: PREINCUBATION); “inactive; negative” (Test System: AMES SALMONELLA TYPHIMURIUM, Strain/Indicator: TA1535, Metabolic Activation: RAT, LIVER, S-9, AROCLOR 1254 (10%), Method: PREINCUBATION); “inactive; negative” (Test System: AMES SALMONELLA TYPHIMURIUM, Strain/Indicator: TA1535, Metabolic Activation: RAT, LIVER, S-9, PHENOBARBITAL AND 5,6-BENZOFLAVONE, Method: PREINCUBATION); “inactive; negative” (Test System: AMES SALMONELLA TYPHIMURIUM, Strain/Indicator: TA1537, Metabolic Activation: HAMSTER, LIVER, S-9, AROCLOR 1254 (10%), Method: PREINCUBATION); “inactive; negative” (Test System: AMES SALMONELLA TYPHIMURIUM, Strain/Indicator: TA1537, Metabolic Activation: NONE, Method: PREINCUBATION). Besides, the mutagenic call (Test System: AMES SALMONELLA TYPHIMURIUM, Strain/Indicator: TA1537, Metabolic Activation: RAT, LIVER, S-9, AROCLOR 1254 (10%), Method: PREINCUBATION) was “active; positive”; the mutagenic call (Test System: AMES SALMONELLA TYPHIMURIUM, Strain/Indicator: TA1537, Metabolic Activation: RAT, LIVER, S-9, PHENOBARBITAL AND 5,6-BENZOFLAVONE, Method: PREINCUBATION) is “inactive; negative”; the mutagenic call (Test System: AMES SALMONELLA TYPHIMURIUM, Strain/Indicator: TA1538, Metabolic Activation: NONE, Method: PREINCUBATION) is “inactive; negative”; the mutagenic call (Test System: AMES SALMONELLA TYPHIMURIUM, Strain/Indicator: TA1538, Metabolic Activation: RAT, LIVER, S-9, PHENOBARBITAL AND 5,6-BENZOFLAVONE, Method: PREINCUBATION) was “inactive; negative”; the mutagenic call (Test System: AMES SALMONELLA TYPHIMURIUM, Strain/Indicator: TA2637, Metabolic Activation: NONE, Method: PREINCUBATION) is “inactive; negative”; the mutagenic call (Test System: AMES SALMONELLA TYPHIMURIUM, Strain/Indicator: TA2637, Metabolic Activation: RAT, LIVER, S-9, PHENOBARBITAL AND 5,6-BENZOFLAVONE, Method: PREINCUBATION) is “inactive; negative”.

For the compound `ClC/C=C/CCl`, the mutagenic call (Test System: AMES SALMONELLA TYPHIMURIUM, Strain/Indicator: TA98, Metabolic Activation: HAMSTER, LIVER, S-9, AROCLOR 1254 (10%), Method: STANDARD PLATE) was “active; positive”; the mutagenic call under setting [3] was “active; positive”; the mutagenic call (Test System: AMES SALMONELLA TYPHIMURIUM, Strain/Indicator: TA98, Metabolic Activation: RAT, LIVER, S-9, AROCLOR 1254 (10%), Method: STANDARD PLATE) is “active; positive”; the mutagenic call (Test System: AMES SALMONELLA TYPHIMURIUM, Strain/Indicator: TA100, Metabolic Activation: HAMSTER, LIVER, S-9, AROCLOR 1254 (10%), Method: STANDARD PLATE) is “active; positive”; the mutagenic call under setting [4] is “active; positive”; the mutagenic call (Test System: AMES SALMONELLA TYPHIMURIUM, Strain/Indicator: TA100, Metabolic Activation: RAT, LIVER, S-9, AROCLOR 1254 (10%), Method: STANDARD PLATE) is “active; positive”. Further, the mutagenic call (Test System: MOUSE LYMPHOMA, Strain/Indicator: L5178Y (TK+/TK-), Metabolic Activation: NONE, Method: SUSPENSION/PLATE) is “active; positive. reevaluation of results: inconclusive” and the mutagenic call (Test System: MOUSE LYMPHOMA, Strain/Indicator: L5178Y (TK+/TK-), Metabolic Activation: RAT, LIVER, S-9, AROCLOR 1254, Method: SUSPENSION/PLATE) is “active; positive. reevaluation of results: positive”.

On to `CC\C=C/C=C\C=C/C=C\C=C/OCCC`, for which the mutagenic call under setting [2] was “active; positive”.

On to `O=C1c2cccc(S(=O)(=O)O)c2C(=O)c2cccc([N+](=O)[O-])c21`, for which the mutagenic call is “active; positive” under setting [3]; “inactive; negative” under setting [4]; “inactive; negative” under setting [5]; “inactive; negative” (Test System: AMES SALMONELLA TYPHIMURIUM, Strain/Indicator: TA1535, Metabolic Activation: NONE, Method: STANDARD PLATE); “inactive; negative” (Test System: AMES SALMONELLA TYPHIMURIUM, Strain/Indicator: TA1535, Metabolic Activation: RAT, LIVER, S-9, AROCLOR 1254, Method: STANDARD PLATE); “inactive; negative” under setting [6]. In addition, the mutagenic call by setting is: (Test System: AMES SALMONELLA TYPHIMURIUM, Strain/Indicator: TA1537, Metabolic Activation: RAT, LIVER, S-9, AROCLOR 1254, Method: STANDARD PLATE) “inactive; negative”; (Test System: AMES SALMONELLA TYPHIMURIUM, Strain/Indicator: TA1538, Metabolic Activation: NONE, Method: STANDARD PLATE) “active; positive”; (Test System: AMES SALMONELLA TYPHIMURIUM, Strain/Indicator: TA1978, Metabolic Activation: NONE, Method: STANDARD PLATE) “inactive; negative”.

For the compound `c1ccc([C@H]2N[C@@H]2c2ccccc2)cc1`, the mutagenic call under setting [3] was “inactive; negative”, the mutagenic call under setting [4] was “active; positive” and the mutagenic call under setting [6] is “inactive; negative”.

For `CCC(=O)OCc1cccc([N+](=O)[O-])c1`, the mutagenic call under setting [1] was “inactive; negative”; the mutagenic call under setting [2] was “inactive; negative”; the mutagenic call (Test System: AMES SALMONELLA TYPHIMURIUM, Strain/Indicator: TA100, Metabolic Activation: RAT, LIVER, S-9, AROCLOR 1254, Method: PREINCUBATION) was “inactive; negative”.

In the case of `CP1(C)=NP(C)(C)=NP(C)(C)=N1`, the mutagenic call under setting [3] was “inactive; negative”; the mutagenic call (Test System: AMES SALMONELLA TYPHIMURIUM, Strain/Indicator: TA98, Metabolic Activation: RAT, LIVER, S-9, AROCLOR 1254, Method: STANDARD PLATE) is “inactive; negative”; the mutagenic call under setting [4] is “inactive; negative”; the mutagenic call under setting [5] is “inactive; negative”.

In the case of `[Ag]`, the mutagenic call (End Point: In vivo micronucleus, Test System: Bone marrow polychromatic erythrocytes, Species: Rat, Strain/Sex: Sprague-Dawley/Male and Female, Route: Oral) was “inactive; negative”.
